Reference: patent US20260167641A1, “CRYSTAL FORM OF IMIDAZOPYRAZINE DERIVATIVE, PREPARATION METHOD THEREFOR AND USE THEREOF” (TRANSTHERA SCIENCES (NANJING), INC., priority 2022, published 2026)

Assays:
Long-term stability test = format: physicochemical
Method: The samples were stored under the conditions of 25° C./60% RH (relative humidity) and 30° C./65% RH (relative humidity), respectively, and then collected at 1M, 2M, 3M, 6M, 9M, 12M, and 18M. Additionally, the samples were stored under the conditions of 40° C./75% RH (relative humidity) and then collected at 1M, 2M, 3M, and 6M. The appearance, total impurities, content, moisture, and crystal form changes (at 3M, 6M, and 12M) were examined and compared with the results on day 0.

[1] = Pharmacokinetic evaluation test in rats; format: in vivo, SD rats; conditions: p.o. 100 mg/kg
Method: • Animals: male SD rats • Animal administration and sample collection: Crystal forms I, II, and III were each dissolved in a mixture of 20% PEG400+80% (20% Captisol in 0.5% MC) to prepare administration formulation suspensions. The administration formulations were intragastrically administered to the SD rats at a dose of 100 mg/kg. Blood samples were collected at time points of 15 min, 30 min, 1 h, 2 h, 4 h, 6 h, 8 h, 24 h, 48 h, 72 h, and […] after administration.
One day before administration, the animals underwent jugular vein catheterization. After administration, about 300 μL of blood samples were collected via the jugular vein and then placed into anticoagulation tubes containing EDTA-K2. The blood samples were centrifuged at 4° C. and 8000 rpm for 10 min to yield plasma samples, which were prepared within 30 min after blood sample collection. The plasma samples were stored in a refrigerator at −80° C. before tests.
The samples to be tested were taken out from the refrigerator at −80° C., naturally thawed at room temperature, and then vortexed for 5 min. 20 μL of each of the 20-fold diluted plasma samples was precisely pipetted into a 1.5 mL centrifuge tube, and 300 μL of an internal standard working solution at a concentration of 10 ng/mL was added. The mixture was uniformly mixed, vortexed for 5 min, and then centrifuged at 12000 rpm for 5 mun.
50 μL of the supernatant was precisely pipetted into a 96-well plate to which water was added at 150 μL/well in advance, uniformly mixed by vortexing for 5 min, and analyzed by LC-MS/MS.
The sample to be tested was taken out from the refrigerator at −80° C., naturally thawed at room temperature, and then vortexed for 5 min. 2 μL of the plasma sample was precisely pipetted and then added, together with 28 μL of blank plasma, to a 1.5 mL centrifuge tube, and 450 μL of an internal standard working solution (a solution of tolbutamide in acetonitrile) at a concentration of 100 ng/mL was added. The mixture was uniformly mixed, vortexed for 5 min, and then centrifuged at 12000 rpm for 5 min. 50 μL of the supernatant was precisely pipetted into a 96-well plate to which water was added at 150 μL/well in advance, uniformly mixed by vortexing for 5 min, and analyzed by LC-MS/MS.
The test compound concentrations were output by Analyst 1.7.1 of AB Sciex. Parameters such as mean, standard deviation, and coefficient of variation were calculated by Microsoft Excel. PK parameters were calculated by Pharsight Phoenix 8.2 software NCA (Tmax was in median).

[2] = male SD rats, mean, n = 3, 100 mg/kg

Appearance (Long-term stability test; 0 day): Yellow solid | Content % (Long-term stability test; 0 day): 98.3% | Crystal form XRPD (Long-term stability test; 0 day): Crystal form II | Moisture % (Long-term stability test; 0 day): 0.23% | Total impurities % (Long-term stability test; 0 day): 1.1% | Changes in appearance, total impurities, content, and moisture (Long-term stability test; 6 months at 40° C./75% RH, 18 months at 25° C./60% RH and 30° C./65% RH): no significant changes | Appearance (Long-term stability test; 25° C./60% RH, 1M): Yellow solid | Content % (Long-term stability test; 25° C./60% RH, 1M): 98.2% | Moisture % (Long-term stability test; 25° C./60% RH, 1M): 0.28% | Total impurities % (Long-term stability test; 25° C./60% RH, 1M): 1.1% | Appearance (Long-term stability test; 25° C./60% RH, 2M): Yellow solid | Content % (Long-term stability test; 25° C./60% RH, 2M): 98.3% | Moisture % (Long-term stability test; 25° C./60% RH, 2M): 0.16% | Total impurities % (Long-term stability test; 25° C./60% RH, 2M): 1.2% | Appearance (Long-term stability test; 25° C./60% RH, 3M): Yellow solid | Content % (Long-term stability test; 25° C./60% RH, 3M): 98.4% | Crystal form XRPD (Long-term stability test; 25° C./60% RH, 3M): Crystal form II | Moisture % (Long-term stability test; 25° C./60% RH, 3M): 0.24% | Total impurities % (Long-term stability test; 25° C./60% RH, 3M): 1.1% | Appearance (Long-term stability test; 25° C./60% RH, 6M): Yellow solid | Content % (Long-term stability test; 25° C./60% RH, 6M): 98.2% | Crystal form XRPD (Long-term stability test; 25° C./60% RH, 6M): Crystal form II | Moisture % (Long-term stability test; 25° C./60% RH, 6M): 0.16% | Total impurities % (Long-term stability test; 25° C./60% RH, 6M): 1.1% | Appearance (Long-term stability test; 25° C./60% RH, 9M): Yellow solid | Content % (Long-term stability test; 25° C./60% RH, 9M): 98.5% | Moisture % (Long-term stability test; 25° C./60% RH, 9M): 0.23% | Total impurities % (Long-term stability test; 25° C./60% RH, 9M): 1.1% | Appearance (Long-term stability test; 25° C./60% RH, 12M): Yellow solid | Content % (Long-term stability test; 25° C./60% RH, 12M): 98.2% | Crystal form XRPD (Long-term stability test; 25° C./60% RH, 12M): Crystal form II | Moisture % (Long-term stability test; 25° C./60% RH, 12M): 0.12% | Total impurities % (Long-term stability test; 25° C./60% RH, 12M): 1.1% | Appearance (Long-term stability test; 25° C./60% RH, 18M): Yellow solid | Content % (Long-term stability test; 25° C./60% RH, 18M): 98.9% | Moisture % (Long-term stability test; 25° C./60% RH, 18M): 0.24% | Total impurities % (Long-term stability test; 25° C./60% RH, 18M): 1.1% | Appearance (Long-term stability test; 30° C./65% RH, 1M): Yellow solid | Content % (Long-term stability test; 30° C./65% RH, 1M): 98.2% | Moisture % (Long-term stability test; 30° C./65% RH, 1M): 0.24% | Total impurities % (Long-term stability test; 30° C./65% RH, 1M): 1.1% | Appearance (Long-term stability test; 30° C./65% RH, 2M): Yellow solid | Content % (Long-term stability test; 30° C./65% RH, 2M): 97.9% | Moisture % (Long-term stability test; 30° C./65% RH, 2M): 0.19% | Total impurities % (Long-term stability test; 30° C./65% RH, 2M): 1.2% | Appearance (Long-term stability test; 30° C./65% RH, 3M): Yellow solid | Content % (Long-term stability test; 30° C./65% RH, 3M): 98.2% | Crystal form XRPD (Long-term stability test; 30° C./65% RH, 3M): Crystal form II | Moisture % (Long-term stability test; 30° C./65% RH, 3M): 0.30% | Total impurities % (Long-term stability test; 30° C./65% RH, 3M): 1.1% | Appearance (Long-term stability test; 30° C./65% RH, 6M): Yellow solid | Content % (Long-term stability test; 30° C./65% RH, 6M): 98.1% | Crystal form XRPD (Long-term stability test; 30° C./65% RH, 6M): Crystal form II | Moisture % (Long-term stability test; 30° C./65% RH, 6M): 0.13% | Total impurities % (Long-term stability test; 30° C./65% RH, 6M): 1.1% | Appearance (Long-term stability test; 30° C./65% RH, 9M): Yellow solid | Content % (Long-term stability test; 30° C./65% RH, 9M): 98.4% | Moisture % (Long-term stability test; 30° C./65% RH, 9M): 0.24% | Total impurities % (Long-term stability test; 30° C./65% RH, 9M): 1.1% | Appearance (Long-term stability test; 30° C./65% RH, 12M): Yellow solid | Content % (Long-term stability test; 30° C./65% RH, 12M): 98.2% | Crystal form XRPD (Long-term stability test; 30° C./65% RH, 12M): Crystal form II | Moisture % (Long-term stability test; 30° C./65% RH, 12M): 0.13% | Total impurities % (Long-term stability test; 30° C./65% RH, 12M): 1.1% | Appearance (Long-term stability test; 30° C./65% RH, 18M): Yellow solid | Content % (Long-term stability test; 30° C./65% RH, 18M): 99.0% | Moisture % (Long-term stability test; 30° C./65% RH, 18M): 0.17% | Total impurities % (Long-term stability test; 30° C./65% RH, 18M): 1.1% | Content % (Long-term stability test; 40° C./75% RH, 1M): 98.0% | Appearance (Long-term stability test; 40° C./75% RH, 2M): Yellow solid | Content % (Long-term stability test; 40° C./75% RH, 2M): 97.9% | Moisture % (Long-term stability test; 40° C./75% RH, 2M): 0.18% | Total impurities % (Long-term stability test; 40° C./75% RH, 2M): 1.2% | Appearance (Long-term stability test; 40° C./75% RH, 3M): Yellow solid | Content % (Long-term stability test; 40° C./75% RH, 3M): 98.1% | Crystal form XRPD (Long-term stability test; 40° C./75% RH, 3M): Crystal form II | Moisture % (Long-term stability test; 40° C./75% RH, 3M): 0.24% | Total impurities % (Long-term stability test; 40° C./75% RH, 3M): 1.1% | Appearance (Long-term stability test; 40° C./75% RH, 6M): Yellow solid | Content % (Long-term stability test; 40° C./75% RH, 6M): 98.3% | Crystal form XRPD (Long-term stability test; 40° C./75% RH, 6M): Crystal form II | Moisture % (Long-term stability test; 40° C./75% RH, 6M): 0.13% | Total impurities % (Long-term stability test; 40° C./75% RH, 6M): 1.1% | Appearance (Long-term stability test; 40° C./75% RH, ^ IM): Yellow solid | Moisture % (Long-term stability test; 40° C./75% RH, ^ IM): 0.24% | Total impurities % (Long-term stability test; 40° C./75% RH, ^ IM): 1.1% | Pharmacokinetic properties ([1]; SD rats): very good pharmacokinetic properties | AUCinf—obs [1, 2]: 2545.383 µg·h/mL | AUClast [1, 2]: 2515.536 µg·h/mL | Cmax ([1]; male, SD, rat, plasma, po, 100 mg/kg, male SD rats, mean, n = 3, read-out: Cmax): 145 µg/mL | half-life ([1]; male, SD, rat, plasma, po, 100 mg/kg, male SD rats, mean, n = 3, read-out: tz1/2 (terminal half-life) (converted)): 7.74 h | Tmax ([1]; male, SD, rat, plasma, po, 100 mg/kg, male SD rats, n = 3, Tmax in median, read-out: Tmax): 2 h
Structure (SMILES): Nc1nccn2c(C34CCC(NC(=O)CN5CCOCC5)(CC3)C4)nc(-c3ccc(C(=O)Nc4cc(C(F)(F)F)ccn4)cc3)c12 (single isomer, unassigned) [Crystal form II, 4-(8-amino-3-(4-(2-morpholinoacetamido)bicyclo[2.2.1]heptan-1-yl)imidazo[1,5-a]pyrazin-1-yl)-N-(4-(trifluoromethyl)pyridin-2-yl)benzamide]
